Read-outs that look alike come from different tables or passages of the source. One block for each compound: values may come before it. Non-standard residues stand in square brackets, D forms with d. Residues, ends and D or L forms follow the SMILES beside them. *: point of attachment. Dolaproine = CO[C@@H]([C@@H]1CCCN1)[C@@H](C)C(=O)O; Dil = CC[C@H](C)[C@H](NC)[C@@H](CC(=O)O)OC; X1 = C[C@@H](N*)[C@@H](O)c1ccccc1; NMeV = CN[C@H](C(=O)O)C(C)C
Assays:
LNCaP tumor = test system: LNCaP tumor; parameters: species or system Balb/c mice; conditions: mouse, in vivo
Procedure: DATA.QS.KuE was labeled with ^68Ga and tested in vivo on LNCaP tumor-carrying Balb/c mice. […] The selectivity of binding was determined by means of competitive co-injection of the PSMA inhibitor PMPA. […] FIGS. 10a and 10b show the maximum-intensity projections from μPET studies with [^68Ga]-PSMA-11 and, respectively, [^68Ga]-DATA.QS.KuE in LNCaP tumor-carrying Balb/c. FIGS. 11a and 11b Showtime-activity curves of [^68Ga]-PSMA-11 and, respectively, [^68Ga]-DATA.QS.KuE. […] In the case of treatment with highly ionizing radionuclides, for example ^177Lu, rather than ^68Ga, DATA.QS.KuE enables a crucial reduction in nephrotoxicity.

PSMA = target: T1, PSMA (Homo sapiens, UniProt Q04609); experiment: Cell-based competitive PSMA binding assay on LNCaP cells against reference 68Ga[Ga]PSMA-10
T1 construct: incubated in the wells with the LNCaP cells for 45 min; endogenous in cells; host or cells: LNCaP cells
Procedure: By means of a cell-based assay, the affinity of the target vector-linker units QS.KuE, QS.K.EuE and KuE with a lipophilic linker—analogously to PSMA-617—and the affinity of the substructures NH2.DOTAGA.617.KuE and NH2-DOTAGA.QS.KuE was determined. In addition, the PSMA affinity of the structure MMAE.ValCit.QS.617.KuE which is preferred in accordance with the invention (see scheme 30) was determined.
For the essay, LNCaP cells were pipetted into multiwell plates (Merck Millipore Multiscreen™). The compounds to be analyzed were each admixed with a defined amount or concentration of the reference compound ^68Ga[Ga]PSMA-10 with a known Kd value and incubated in the wells with the LNCaP cells for 45 min. After repeated washing, the cell-bound activity was determined.
In order to determine non-specific binding, all compounds were additionally admixed with an excess of the PSMA inhibitor 2-PMPA (2-(phosphonomethyl)-[…]) and subjected to the same LNCaP assay—as described above.

LNCaP cells = experiment: CellTiter Blue cytotoxicity assay; format: cell-based; conditions: for IC50: 72 hours incubation, read-out: IC50 (cytotoxic action in vitro)
Procedure: In a CellTiter Blue assay, LNCaP cells were incubated with the substance to be studied for 72 hours, and then the IC50 of the compound was determined.

T1 sequence (Q04609 whole entry): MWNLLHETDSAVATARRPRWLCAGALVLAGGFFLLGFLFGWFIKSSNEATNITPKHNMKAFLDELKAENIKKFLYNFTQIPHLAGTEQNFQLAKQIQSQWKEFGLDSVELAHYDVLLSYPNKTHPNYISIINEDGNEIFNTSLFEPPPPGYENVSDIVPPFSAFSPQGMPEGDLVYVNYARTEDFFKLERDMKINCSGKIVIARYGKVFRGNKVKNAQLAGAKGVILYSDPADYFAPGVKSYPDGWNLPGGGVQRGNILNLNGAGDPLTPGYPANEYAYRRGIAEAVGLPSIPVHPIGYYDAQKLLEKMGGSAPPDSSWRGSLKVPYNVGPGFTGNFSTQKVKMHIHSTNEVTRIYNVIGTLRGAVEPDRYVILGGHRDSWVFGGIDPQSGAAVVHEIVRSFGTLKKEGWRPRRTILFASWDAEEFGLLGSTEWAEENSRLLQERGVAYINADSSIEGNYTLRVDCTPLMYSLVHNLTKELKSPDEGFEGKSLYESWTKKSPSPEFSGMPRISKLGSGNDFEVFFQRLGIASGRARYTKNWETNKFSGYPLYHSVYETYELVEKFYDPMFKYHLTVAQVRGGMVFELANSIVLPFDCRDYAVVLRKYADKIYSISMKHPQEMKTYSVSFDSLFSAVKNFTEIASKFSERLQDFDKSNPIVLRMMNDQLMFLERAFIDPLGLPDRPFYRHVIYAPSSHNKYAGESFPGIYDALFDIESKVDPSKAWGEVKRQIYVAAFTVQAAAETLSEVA

kidney exposure/dose by comparison with PSMA-11 (LNCaP tumor): considerably lower
tumor enrichment by comparison with PSMA-11 (LNCaP tumor): approximately the same
SMILES: CN(CC(=O)O)C1(CCCCC(=O)NCCNc2c(NCCCC[C@H](NC(=O)N[C@@H](CCC(=O)O)C(=O)O)C(=O)O)c(=O)c2=O)CN(CC(=O)O)CCN(CC(=O)O)C1 [DATA.QS.KuE]

Ki (PSMA; LNCaP cells, competition with 68Ga[Ga]PSMA-10, 45 min incubation, calculated from inhibition curves, read-out: Ki (PSMA binding affinities)): 0.0123 ± 0.0031 µM
IC50 (PSMA; LNCaP cells, competition with 68Ga[Ga]PSMA-10, 45 min incubation, read-out: IC50 (PSMA binding affinities)): 0.0151 ± 0.0038 µM
SMILES: O=C(O)CCC(NC(=O)NC(CCCCNC(=O)C(Cc1ccc2ccccc2c1)NC(=O)C1CCC(CNC(=O)CN2CCN(CC(=O)O)CCN(CC(=O)O)CCN(CC(=O)O)CC2)CC1)C(=O)O)C(=O)O (stereo not drawn) [PSMA-617, reference compound]

SMILES: CC[C@H](C)[C@@H]([C@@H](CC(=O)N1CCC[C@H]1[C@H](OC)[C@@H](C)C(=O)N[C@H](C)[C@@H](O)c1ccccc1)OC)N(C)C(=O)[C@@H](NC(=O)[C@@H](NC)C(C)C)C(C)C [MMAE, Monomethyl-auristatin E, reference compound] (H-[NMeV]V[Dil][Dolaproine]-X1)
IC50 (LNCaP cells; Homo sapiens): 0.00029 ± 0.00012 µM

SMILES: CCC(C)C(C(CC(=O)N1CCCC1C(OC)C(C)C(=O)NC(C)C(O)c1ccccc1)OC)N(C)C(=O)C(NC(=O)C(C(C)C)N(C)C(=O)OCc1ccc(NC(=O)C(CCCNC(N)=O)NC(=O)C(Nc2c(NCC3CCC(C(=O)NC(Cc4ccc5ccccc5c4)C(=O)NCCCCC(NC(=O)NC(CCC(=O)O)C(=O)O)C(=O)O)CC3)c(=O)c2=O)C(C)C)cc1)C(C)C (stereo not drawn) [MMAE.ValCit.QS.617.KuE]
cell cytotoxicity in vitro compared with pure active ingredient MMAE (LNCaP cells; 72 hours): somewhat lower
IC50 (LNCaP cells): 0.0322 ± 0.0057 µM
IC50 (PSMA): 0.1981 ± 0.0019 µM
Ki (PSMA): 0.162 ± 0.0033 µM
